Test results taken from patent publication US7196105B2, “Treatment of human multiple myeloma by curcumin” (Research Development Foundation, priority 2002, dated 2007).

Assays:
p65 subunit of NF-κB = assay: Immunocytochemistry for NF-κB p65 localization in multiple myeloma cell lines; assay type: cell-based, human; settings: all four multiple myeloma cell lines, curcumin 50 μM, 4 hours
Description: Red stain indicates the localization of p65 and blue stain (Hoechst) indicates nucleus (magnification 200×). […] U266 cells (2×10^6 cells/ml) were treated with indicated concentrations of NEMO-control or NBD-peptide (100 μM) for the indicated times. Nuclear extracts were then checked for the presence of NF-κB DNA-binding activity by EMSA. […] Untreated or NBD-peptide-treated (100 μM; 12 h) U266 cells were cytospun, and p65 immunocytochemistry was performed as described. Red stain indicates the localization of p65 and blue stain indicates nucleus (magnification 200×). […] U266 cells (2×10^6 cells/ml) were treated with indicated concentrations of NEMO-control or NBD-peptide (100 μM) for the indicated time periods, and cell viability was monitored by the trypan blue dye exclusion method. Percent cell killing was determined as: (number of trypan blue stained cells/total cells)×100. […] Stained slides were mounted with mounting medium (Sigma Colo.) and analyzed under an epifluorescence microscope (Labophot-2, Nikon, Tokyo, Japan). […] Cells with nuclear staining of NF-κB p65 or STAT3 were counted separately. One hundred cells were counted for each specimen, and the sample was graded on the basis of a 4-point scale: −, no nuclear positive cells (0%); +, low number of nuclear positive cells (<10%); ++, moderate number of nuclear positive cells (10–50%); +++, high number of nuclear positive cells (>50%).

IκB kinase = target: T1, IκB kinase (Homo sapiens, UniProt O14920+O15111); assay: In vitro kinase assay: IKK immunoprecipitated from untreated U266 cells, then treated with curcumin; assay type: biochemical; settings: curcumin 30 min, GST-IκBα substrate
T1 construct: 200 μg cytoplasmic extracts were immunoprecipitated with 1 μg of anti-IKKa and IKKb antibodies each; endogenous in cells; host or cells: U266 human multiple myeloma cells (cytoplasmic extract, immunoprecipitate on protein A/G-Sepharose)
T1 sequence (O15111 whole entry): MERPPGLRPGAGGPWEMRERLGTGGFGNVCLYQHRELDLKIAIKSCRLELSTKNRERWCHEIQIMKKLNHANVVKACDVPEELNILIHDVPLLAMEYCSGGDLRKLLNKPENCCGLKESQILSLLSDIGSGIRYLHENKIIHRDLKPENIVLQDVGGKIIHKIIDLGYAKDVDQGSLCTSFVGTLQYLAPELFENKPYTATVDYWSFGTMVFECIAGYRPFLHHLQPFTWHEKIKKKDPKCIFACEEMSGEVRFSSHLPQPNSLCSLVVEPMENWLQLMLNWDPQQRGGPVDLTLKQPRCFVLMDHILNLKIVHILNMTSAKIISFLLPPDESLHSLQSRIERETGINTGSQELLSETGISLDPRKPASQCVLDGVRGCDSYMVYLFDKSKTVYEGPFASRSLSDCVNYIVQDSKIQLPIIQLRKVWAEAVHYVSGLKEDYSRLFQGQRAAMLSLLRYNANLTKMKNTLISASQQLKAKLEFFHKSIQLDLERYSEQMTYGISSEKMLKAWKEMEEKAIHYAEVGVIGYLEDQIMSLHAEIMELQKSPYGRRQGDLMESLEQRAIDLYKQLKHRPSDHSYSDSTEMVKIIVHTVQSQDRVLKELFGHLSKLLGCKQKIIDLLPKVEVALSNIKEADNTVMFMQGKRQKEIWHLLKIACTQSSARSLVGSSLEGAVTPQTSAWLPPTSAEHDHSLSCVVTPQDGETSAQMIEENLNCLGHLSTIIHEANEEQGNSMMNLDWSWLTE
T1 sequence (O14920 whole entry): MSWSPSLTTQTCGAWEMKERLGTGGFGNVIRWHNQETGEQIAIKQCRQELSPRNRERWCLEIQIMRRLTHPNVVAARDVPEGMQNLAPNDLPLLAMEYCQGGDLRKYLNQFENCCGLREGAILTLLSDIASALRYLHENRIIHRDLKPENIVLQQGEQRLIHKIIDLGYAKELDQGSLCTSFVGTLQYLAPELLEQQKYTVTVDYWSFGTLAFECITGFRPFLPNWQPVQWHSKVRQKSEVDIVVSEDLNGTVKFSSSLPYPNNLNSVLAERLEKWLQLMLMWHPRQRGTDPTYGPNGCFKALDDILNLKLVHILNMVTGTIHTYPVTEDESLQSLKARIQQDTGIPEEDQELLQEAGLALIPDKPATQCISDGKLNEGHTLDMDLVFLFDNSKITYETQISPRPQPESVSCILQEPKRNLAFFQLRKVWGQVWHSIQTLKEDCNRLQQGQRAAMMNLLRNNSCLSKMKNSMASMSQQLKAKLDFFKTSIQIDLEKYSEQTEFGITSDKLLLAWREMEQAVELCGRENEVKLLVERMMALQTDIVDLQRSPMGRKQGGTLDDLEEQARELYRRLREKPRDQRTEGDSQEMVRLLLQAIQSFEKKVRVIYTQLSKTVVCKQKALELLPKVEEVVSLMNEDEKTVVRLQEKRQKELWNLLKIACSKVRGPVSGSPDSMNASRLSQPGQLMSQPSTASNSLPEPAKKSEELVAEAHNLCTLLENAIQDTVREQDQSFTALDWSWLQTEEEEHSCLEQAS
T1 sequence (Q9Y6K9 whole entry partner): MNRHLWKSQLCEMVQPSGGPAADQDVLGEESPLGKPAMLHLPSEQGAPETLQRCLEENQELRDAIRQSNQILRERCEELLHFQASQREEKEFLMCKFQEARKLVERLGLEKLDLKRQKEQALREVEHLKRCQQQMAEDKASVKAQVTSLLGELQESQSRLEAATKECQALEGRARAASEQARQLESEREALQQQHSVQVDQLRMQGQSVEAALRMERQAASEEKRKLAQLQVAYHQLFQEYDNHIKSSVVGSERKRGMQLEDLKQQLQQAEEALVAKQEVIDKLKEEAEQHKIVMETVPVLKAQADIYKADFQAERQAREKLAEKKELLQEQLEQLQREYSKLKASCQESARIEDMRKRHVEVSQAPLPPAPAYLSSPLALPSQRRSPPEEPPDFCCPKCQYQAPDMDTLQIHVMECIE
Description: Five million U266 cells/2.5 ml were treated with curcumin (50 μM) for the indicated times and cytoplasmic extracts were prepared. FIG. 3A: Level of phosphorylated IκBα determined by Western blotting. FIG. 3B: Immunoprecipitated IκB kinase and kinase assay of IκB kinase activity (upper panel) or Western blotting for the analysis of total IKKα and IKKβ proteins in cytoplasmic extracts (lower panel). FIG. 3C: IκB kinase was immunoprecipitated and kinase assay was performed in the absence or presence of the indicated concentrations of curcumin (upper panel). Lower panel indicates the amount of GST-IκBα protein stained with Coomassie Blue in each well in the same dried gel.
The IkB kinase assay was performed with a modified method as described earlier (Manna et al., 2000). Briefly, 200 μg cytoplasmic extracts were immunoprecipitated with 1 μg of anti-IKKa and IKKb antibodies each, and the immune complexes so formed were precipitated with 0.01 ml of protein A/G-Sepharose beads for 2 hour. The beads were washed first with lysis buffer and then with kinase assay buffer (50 mM HEPES pH 7.4, 20 mM MgCl2, and 2 mM DTT). The immune complex was then assayed for kinase activity using kinase assay buffer containing […] [g-P^32]ATP, 10 μM unlabeled ATP, and 2 μg/sample glutathione S-transferase-IkBa (1–54). […] Radioactive bands of the dried gel were visualized and quantitated by PhosphorImager. […]

U266 cells = assay: Proliferation by thymidine incorporation; assay type: cell-based, human; settings: U266, 24 h, different concentrations
Description: FIG. 6A: U266 cells (5000 cells/0.1 ml) were incubated with different concentrations of curcumin for 24 hours, and cell proliferation assay was performed as described. Results are shown as mean (±s.d.) of percent [^3H}-thymidine incorporation of triplicate cultures compared to untreated control. FIG. 6B: U266 cells (5000 cells/0.1 ml) were incubated with different concentrations of curcumin for 24 hours, and cell viability was determined by MTT method. The results are shown as the mean (±s.d.) percent viability from triplicate cultures. The antiproliferative effects of curcumin were also monitored by the thymidine incorporation method. Five thousand cells in […] medium were cultured in triplicate in 96-well plates in the presence or absence of curcumin for 24 h. Six hours before the completion of experiment, the cells were pulsed with […] ^3H-thymidine, and the uptake of ^3H-thymidine was monitored using a Matrix-9600 b-counter (Packard Instruments, Downers Grove, Ill.).

## COc1cc(/C=C/C(=O)CC(=O)/C=C/c2ccc(O)c(OC)c2)ccc1O [curcumin, diferuloylmethane]
p65 subunit of NF-κB
  nuclear translocation of p65: prevented the translocation of the p65 subunit of NF-κB to the nucleus
IκB kinase
  direct inhibition of IκB kinase activity: inhibited IκB kinase activity directly in a dose-dependent manner
U266 cells
  thymidine incorporation: suppressed thymidine incorporation within 24 h in a dose-dependent manner
